{"source": "patent US20130289520A1", "about": "“TARGETED AND LIGHT-ACTIVATED CYTOSOLIC DRUG DELIVERY” (CHILDREN'S HOSPITAL BOSTON, priority 2010, published 2013)", "key": {"LN-229 cells [1]": {"test_system": "LN-229 cells", "assay": "Light-activated cytosolic delivery of co-endocytosed dextran, NeutrAvidin and QD", "type": "cell-based, human", "details": "for cytosolic delivery of co-endocytosed macromolecule or particle after light stimulation of NPs: LN-229 cells, overnight co-endocytosis with NPs, TRITC-filtered light 30 to 120 s", "protocol": "We then determined whether the NPs could liberate co-endocytosed macromolecules and nanoparticles. […] In this experiment, one set of LN-229 cells was incubated with NPs loaded with a releasable cargo dye (Alexa 546), while a second set was incubated with NPs carrying a dye covalently bound to their matrix during synthesis (Alexa633; so it could not be released). The two cells populations were then plated together, and incubated in the presence of dextran-FITC. […] The lower release kinetics of dextran in the case of the covalently labeled Alexa633-NPs may be explained by a lower excitation efficiency of this fluorophore through the TRITC filter set used for exposure.\nLN-229 cells were biotinylated at room temperature with NHS-PEO4-biotin in D-PBS (500 μM, Pierce) supplemented with 10 mM glucose for 30 min, washed ×5 in D-PBS, and trypsinized in 0.01% trypsin/EDTA. Cells were collected with DMEM-10% FBS, centrifuged for 5 min at 1,000 rpm, and resuspended in a 50 μg/mL solution of dye-loaded NP-streptavidin in D-PBS-glucose. After 30 min, the cells were washed twice in D-PBS, resuspended in DMEM-10% FBS, and plated on 12 mm glass coverslips at a density of ˜10^5 cells/cm^2. Dextran-FITC (3 kDa, Sigma), NeutrAvidin-FITC (Pierce), or QD525-streptavidin conjugates (Invitrogen) were added to the cells at respective concentrations of 1 mg/mL, 5 μg/mL, and 2 nM. Cells were placed in a 37° C. incubator overnight with 5% CO2 to allow for coverslip attachment and simultaneous endocytosis of the surface-bound NP-streptavidin conjugates, as well as dextran, NeutrAvidin, or QDs present in the culture medium. After overnight endocytosis, cells were washed twice in D-PBS, and transferred to a live-cell imaging chamber for light stimulation and observation in D-PBS supplemented with 10 mM glucose.\nFor experiments involving two types of NPs, the orange pseudo-colored NPs were the post-synthesis Alexa 546 loaded NPs used in all other experiments, while the red pseudo-colored NPs were covalently bound to Alexa 633 incorporated during synthesis of the NPs (1 μL of MPTMS and 20 μL of a 10 mM stock solution of Alexa 633-maleimide were incubated overnight at room temperature, and premixed with the silicate precursors before injection into the reaction mixture. Unreacted dye was removed during the surfactant extraction process). The “orange” nanoparticles can release part of their cargo, while the dye is irreversibly bound to the silica matrix for the “red” NPs. After trypsinization, the biotinylated LN-229 cells were incubated separately with each type of NP, and remixed at 1:1 before plating and overnight incubation with dextran-FITC."}, "LN-229 cells [2]": {"test_system": "LN-229 cells", "assay": "Light-induced cytosolic release of NP cargo after endocytosis", "type": "cell-based, human", "details": "co-incubated overnight with PEI-PEG coated NPs; green light", "protocol": "Following overnight NP endocytosis, cells were exposed to green excitation light (520-550 nm, MWIG3/TRITC filter) for durations ranging from 3 s to 120 s. […] Confocal micrographs were analyzed using the software package Image-J. Average cell fluorescence was determined by manual contouring of cell borders. Data were then imported into Matlab (The Mathworks) for analysis and plotting purposes. The amount of dye released in the cell cytosol following light stimulation was taken as the difference in average cell fluorescence before and after light exposure."}}}
{"molecule": "quantum-dot-streptavidin conjugates: QD525-streptavidin conjugates (Invitrogen)", "values": [{"measurement": "cytosolic delivery of co-endocytosed macromolecule or particle after light stimulation of NPs", "setting": "LN-229 cells [1]", "value": "remained clustered in the endo-lysosomal compartment"}, {"measurement": "cytosolic delivery of co-endocytosed macromolecule or particle after light stimulation of NPs", "setting": "LN-229 cells [1]; listed as QD525-streptavidin", "value": "do not migrate into the cytosol"}]}
{"molecule": "NeutrAvidin: NeutrAvidin-FITC protein conjugate (Pierce)", "values": [{"measurement": "cytosolic delivery of co-endocytosed macromolecule or particle after light stimulation of NPs", "setting": "LN-229 cells [1]", "value": "could also be delivered to the cell cytosol"}, {"measurement": "time to maximum cell fluorescence", "setting": "LN-229 cells [1]; following the end of 120 s light exposure", "value": "> 10", "unit": "min"}]}
{"molecule": "O=C(O)CN(CC(=O)O)Cc1cc2c(cc1O)Oc1cc(O)c(CN(CC(=O)O)CC(=O)O)cc1C21OC(=O)c2ccccc21", "note": "[calcein]", "values": [{"measurement": "cytosolic release of co-endocytosed compound after light exposure", "setting": "LN-229 cells [2]", "value": "cytosolic release"}]}
{"molecule": "dextran-FITC", "values": [{"measurement": "cytosolic delivery of co-endocytosed macromolecule or particle after light stimulation of NPs", "setting": "LN-229 cells [1]", "value": "successfully mediated cytosolic delivery"}]}
